In patent US11311043B2, “Preparation of glucan-based shell-core structure carrier material and its application thereof” (Jiangnan University, priority 2018, dated 2022):

Columns and labels:
Intestinal cell = Intestinal cell experiment: hydrogen peroxide irritation, cell activity by MTT method; type: cell-based; settings: 2 mM hydrogen peroxide for 2 h, then cultured 4 h
Method: Cell experiment: Intestinal cell experiment is performed on a carrying complex. 100 μL of a carrying material-nutritional factor complex dissolved solution is added to a cell culture solution, 2 mM of a hydrogen peroxide solution is added for irritating cells for 2 h, and the cells are continued to be cultured for 4 h. Cell activity is detected by an MTT method.

[1] = Biological stability by oxidation rate POV (potassium thiocyanate peroxide value method); type: physicochemical; settings: conjugated linoleic acid carried; stability from maximum peroxide value (POV)
Method: To better realize the present invention, biological stability is characterized by determining the oxidation rate POV (peroxide value) by applying a potassium thiocyanate POV determining method. POV is calculated through the formula below: […]
c and c0 are the mass of iron in a test sample and a blank sample; m is the mass of CLA; 2 is a conversion factor; and 55.84 is the relative atomic mass of iron. The degree of oxidation of pure nutritional factors serves as control, and the maximum values of the amount of peroxide (POV) in the control and the material are calculated and compared. POV is the amount of peroxide in a first stage product obtained after fat oxidation. Because it cannot be excluded that a small amount of peroxide continues to decompose into small molecular substances under an oxidizing environment, the stability is characterized by: Stability[…](100−100 g CLA maximum value of the amount of peroxide generated by oxidation)/100*100%.

Biological stability [1] [%] | Compound | Cell activity % (Intestinal cell; 1 μg/ml) [%] | Cell activity % (Intestinal cell; 10 μg/ml) [%]
 | COC1=C(OC)C(=O)C(C/C=C(\C)CC/C=C(\C)CC/C=C(\C)CC/C=C(\C)CC/C=C(\C)CC/C=C(\C)CC/C=C(\C)CC/C=C(\C)CC/C=C(\C)CCC=C(C)C)=C(C)C1=O [Coenzyme Q10, coenzyme Q10] | 92 ± 3.4 | 97 ± 2.6
58.2 | conjugated linoleic acid [Control 1] |  | 
